Measured values published in patent US20240116985A1, “STAPLED PEPTIDES AND METHODS THEREOF” (priority 2020, published 2024).

Target: T1, full-length beta-Catenin (Uniprot ID P35222) (Homo sapiens, UniProt P35222)
T1 construct: 10 nM full-length beta-Catenin (Uniprot ID P35222)
T1 sequence (P35222 1-781): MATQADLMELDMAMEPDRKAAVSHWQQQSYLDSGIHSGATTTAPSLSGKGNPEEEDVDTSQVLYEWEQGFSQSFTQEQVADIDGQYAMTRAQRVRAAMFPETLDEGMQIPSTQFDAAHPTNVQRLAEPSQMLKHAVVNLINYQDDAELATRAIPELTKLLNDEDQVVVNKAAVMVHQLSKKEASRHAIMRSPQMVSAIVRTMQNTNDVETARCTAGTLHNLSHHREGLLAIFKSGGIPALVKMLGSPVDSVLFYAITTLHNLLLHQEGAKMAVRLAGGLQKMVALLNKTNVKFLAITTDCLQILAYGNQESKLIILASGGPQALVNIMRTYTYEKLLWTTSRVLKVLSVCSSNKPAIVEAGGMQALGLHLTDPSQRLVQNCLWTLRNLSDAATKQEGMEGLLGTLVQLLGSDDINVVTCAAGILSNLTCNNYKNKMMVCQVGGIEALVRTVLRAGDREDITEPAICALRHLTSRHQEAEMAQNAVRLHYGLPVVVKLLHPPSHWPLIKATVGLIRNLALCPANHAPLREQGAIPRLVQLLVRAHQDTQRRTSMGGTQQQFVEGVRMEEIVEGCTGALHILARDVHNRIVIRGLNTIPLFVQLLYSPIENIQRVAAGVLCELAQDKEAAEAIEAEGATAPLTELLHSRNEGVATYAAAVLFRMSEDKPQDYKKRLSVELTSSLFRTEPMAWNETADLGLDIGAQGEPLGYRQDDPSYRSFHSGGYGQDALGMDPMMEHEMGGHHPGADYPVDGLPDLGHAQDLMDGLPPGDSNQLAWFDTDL
Test: Fluorescence polarization IC50 (beta-catenin / 5FAM-TCF4 10-53 competition)
Type: binding
Conditions: fluorescence polarization; read-out: beta-Catenin FP IC50

| Structure (SMILES) | IC50 [nM] |
| --- | --- |
| CC(=O)N1CCC[C@]12CCCCCCC1(CCCCCCCCOC(=O)N3CC[C@@](C(=O)N[C@@H](Cc4ccsc4)C(=O)N[C@@H](Cc4csc5ccccc45)C(=O)N[C@@H](CC(N)=O)C(N)=O)(C3)NC(=O)[C@H](CC(C)C)NC(=O)[C@H](Cc3ccccc3)NC(=O)[C@H](C)NC(=O)[C@H](C)NC(=O)[C@H](CN(CC(=O)O)CC(F)(F)F)NC(=O)[C@H](CC(=O)O)NC1=O)NC(=O)[C@H](CC(C)(C)C)NC(=O)[C@H](CC(=O)O)NC2=O (stereo partly drawn) [I-1715, Ac-PL3-Asp-Npg-B5-Asp-TfeGA-Ala-Ala-Phe-Leu-PyrS2-3Thi-BztA-Asn-NH2] | 95 |
| CC(=O)N1CCC[C@]12CC=CCCCC1(CCCC=CCCCOC(=O)N3CC[C@@](C(=O)N[C@@H](Cc4ccsc4)C(=O)N[C@@H](Cc4csc5ccccc45)C(=O)N[C@@H](CCC(N)=O)C(N)=O)(C3)NC(=O)[C@H](CC(N)=O)NC(=O)[C@H](CCc3ccccc3)NC(=O)[C@H](C)NC(=O)[C@H](C)NC(=O)[C@H]([C@@H](C)O)NC(=O)[C@H](CC(N)=O)NC1=O)NC(=O)[C@H](CC(C)(C)C)NC(=O)[C@H](CC(=O)O)NC2=O (stereo partly drawn) [I-2008, Ac-PL3-Asp-Npg-B5-Asn-Thr-Ala-Ala-hPhe-Asn-PyrS2-3Thi-BztA-Gln-NH2] | 8830 |
| CC(=O)N1CCC[C@]12CC=CCCCC1(CCCC=CCCCOC(=O)N3CC[C@@](C(=O)N[C@@H](Cc4ccsc4)C(=O)N[C@@H](Cc4csc5ccccc45)C(=O)N[C@@H](CCC(N)=O)C(N)=O)(C3)NC(=O)[C@H](CC(C)C)NC(=O)[C@H](Cn3cc(CN4CCOCC4)nn3)NC(=O)[C@H](C)NC(=O)[C@H](C)NC(=O)[C@H](CN(CC(=O)O)CC(F)(F)F)NC(=O)[C@H](CC(=O)O)NC1=O)NC(=O)[C@H](CC(C)(C)C)NC(=O)[C@H](CC(=O)O)NC2=O (stereo partly drawn) [I-1859, Ac-PL3-Asp-Npg-B5-Asp-TfeGA-Ala-Ala-[MorphCH2]TriAzDap-Leu-PyrS2-3Thi-BztA-Gln-NH2] | 1110 |
| CC(=O)N1CCC[C@]12CCCCCCC1(CCCCCCOC(=O)N3CC(C(=O)N[C@@H](Cc4ccsc4)C(=O)N[C@@H](Cc4csc5ccccc45)C(=O)N[C@@H](CCC(N)=O)C(N)=O)(C3)NC(=O)[C@H](CC(N)=O)NC(=O)[C@H](Cc3ccccc3)NC(=O)[C@H](C)NC(=O)[C@H](C)NC(=O)[C@H](CC(=O)O)NC(=O)[C@H](CC(=O)O)NC1=O)NC(=O)[C@H](CC(C)(C)C)NC(=O)[C@H](CC(=O)O)NC2=O (stereo partly drawn) [I-1831, Ac-PL3-Asp-Npg-B5-Asp-Asp-Ala-Ala-Phe-Asn-Az-3Thi-BztA-Gln-NH2] | 1630 |
| CC(=O)N1CCC[C@]12CC=CCCCC1(CCCC=CCCCOC(=O)N3CC[C@@](C(=O)N[C@@H](Cc4ccsc4)C(=O)N[C@@H](Cc4c[nH]c5ncccc45)C(=O)N[C@@H](CCC(N)=O)C(N)=O)(C3)NC(=O)[C@H](CC(C)C)NC(=O)[C@H](Cc3ccccc3)NC(=O)[C@H](C)NC(=O)[C@H](C)NC(=O)[C@H](CC(=O)O)NC(=O)[C@H](CC(=O)O)NC1=O)NC(=O)[C@H](CC(C)(C)C)NC(=O)[C@H](CC(=O)O)NC2=O (stereo partly drawn) [I-2181, Ac-PL3-Asp-Npg-B5-Asp-Asp-Ala-Ala-Phe-Leu-PyrS2-3Thi-7AzaW-Gln-NH2] | 2880 |
| CC(=O)N1CCC[C@]12CC=CCCCC1(CCCC=CCCCOC(=O)N3CC[C@@](C(=O)N[C@@H](Cc4ccccc4)C(=O)N[C@@H](Cc4csc5ccccc45)C(=O)N[C@@H](CCC(N)=O)C(N)=O)(C3)NC(=O)[C@H](CC(C)C)NC(=O)[C@H](Cc3ccccc3)NC(=O)[C@H](C)NC(=O)[C@H](CCCCNC(C)C)NC(=O)[C@H](CCO)NC(=O)[C@H](CC(=O)O)NC1=O)NC(=O)[C@H](CC1CCCCC1)NC(=O)[C@H](CC(N)=O)NC2=O (stereo partly drawn) [I-2345, Ac-PL3-Asn-Cha-B5-Asp-Hse-iPrLys-Ala-Phe-Leu-PyrS2-Phe-BztA-Gln-NH2] | 1270 |

Further lines, results first:

| IC50 [nM] | Structure (SMILES) |
| --- | --- |
| 71 | CC(=O)N1CCC[C@]12CC=CCCCC1(CCCC=CCCCOC(=O)N3CC[C@@](C(=O)N[C@@H](Cc4ccsc4)C(=O)N[C@@H](Cc4cn(C)c5ccccc45)C(=O)N[C@@H](CCC(N)=O)C(N)=O)(C3)NC(=O)[C@H](CC(C)C)NC(=O)[C@H](Cc3ccccc3)NC(=O)[C@H](C)NC(=O)[C@H](C)NC(=O)[C@H](CC(=O)O)NC(=O)[C@H](CC(=O)O)NC1=O)NC(=O)[C@H](CC(C)(C)C)NC(=O)[C@H](CC(=O)O)NC2=O (stereo partly drawn) [I-1433, Ac-PL3-Asp-Npg-B5-Asp-Asp-Ala-Ala-Phe-Leu-PyrS2-3Thi-1MeW-Gln-NH2] |
| 209 | CC(=O)N1CCC[C@]12CC=CCCCC1(CCCC=CCCCOC(=O)N3CC[C@@](C(=O)N[C@@H](Cc4ccsc4)C(=O)N[C@@H](Cc4csc5ccccc45)C(=O)N[C@@H](CCC(N)=O)C(N)=O)(C3)NC(=O)[C@H](CC(C)C)NC(=O)[C@H](Cc3ccccc3)NC(=O)[C@H](C)NC(=O)[C@H](C)NC(=O)[C@H](CN(CC(=O)O)CC(F)(F)F)NC(=O)[C@H](C(C)(C)C(=O)O)NC1=O)NC(=O)[C@H](CC(C)(C)C)NC(=O)[C@H](CC(=O)O)NC2=O (stereo partly drawn) [I-1771, Ac-PL3-Asp-Npg-B5-bMe2Asp-TfeGA-Ala-Ala-Phe-Leu-PyrS2-3Thi-BztA-Gln-NH2] |
| 474 | CC(=O)N1CCC[C@]12CC=CCCCC1(CCCC=CCOC(=O)N3CC(C(=O)N[C@@H](Cc4ccsc4)C(=O)N[C@@H](Cc4csc5ccccc45)C(=O)N[C@@H](CCC(N)=O)C(N)=O)(C3)NC(=O)[C@H](CC(N)=O)NC(=O)[C@H](Cc3ccccc3)NC(=O)[C@H](C)NC(=O)[C@H](C)NC(=O)[C@H](CC(=O)O)NC(=O)[C@H](CC(=O)O)NC1=O)NC(=O)[C@H](CC(C)(C)C)NC(=O)[C@H](CC(=O)O)NC2=O (stereo partly drawn) [I-1826, Ac-PL3-Asp-Npg-B5-Asp-Asp-Ala-Ala-Phe-Asn-Az-3Thi-BztA-Gln-NH2] |
| 918 | CC(=O)N1CCC[C@]12CC=CCCCC1(CCCC=CCCCOC(=O)N3CC[C@@](C(=O)N[C@@H](Cc4ccsc4)C(=O)N[C@@H](Cc4csc5ccccc45)C(=O)N[C@@H](CCC(N)=O)C(N)=O)(C3)NC(=O)[C@H](CC(C)C)NC(=O)[C@H](Cc3ccccc3)NC(=O)[C@H](C)NC(=O)[C@H](C)NC(=O)[C@H](CC(=O)O)NC(=O)[C@H](CC(=O)S)NC1=O)NC(=O)[C@H](CC(C)(C)C)NC(=O)[C@H](CC(=O)O)NC2=O (stereo partly drawn) [I-1945, Ac-PL3-Asp-Npg-B5-AspSH-Asp-Ala-Ala-Phe-Leu-PyrS2-3Thi-BztA-Gln-NH2] |
| 7 | CC(=O)N1CCC[C@]12CC=CCCCC1(CCCC=CCCCOC(=O)N3CC[C@@](C(=O)N[C@@H](Cc4ccsc4)C(=O)N[C@@H](Cc4csc5ccccc45)C(=O)N[C@@H](Cc4c[nH]cn4)C(N)=O)(C3)NC(=O)[C@H](CCC(N)=O)NC(=O)[C@H](Cc3ccccc3)NC(=O)[C@H](C)NC(=O)[C@H](C)NC(=O)[C@H](CC(=O)O)NC(=O)[C@H](CC(=O)O)NC1=O)NC(=O)[C@H](CC(C)(C)C)NC(=O)[C@H](CC(=O)O)NC2=O (stereo partly drawn) [I-1460, Ac-PL3-Asp-Npg-B5-Asp-Asp-Ala-Ala-Phe-Gln-PyrS2-3Thi-BztA-His-NH2] |
| 187 | CC(=O)N1CCC[C@]12CC=CCCCC1(CCCC=CCCCOC(=O)N3CC[C@@](C(=O)N[C@@H](Cc4ccccc4)C(=O)N[C@@H](Cc4csc5ccccc45)C(=O)N[C@@H](Cc4c[nH]cn4)C(N)=O)(C3)NC(=O)[C@H](CC(C)C)NC(=O)[C@H](Cc3ccccc3)NC(=O)[C@H](C)NC(=O)[C@H](CCCCNC(C)C)NC(=O)[C@H](CCC(N)=O)NC(=O)[C@H](CC(=O)O)NC1=O)NC(=O)[C@H](CC1CCCCC1)NC(=O)[C@H](CC(N)=O)NC2=O (stereo partly drawn) [I-2351, Ac-PL3-Asn-Cha-B5-Asp-Gln-iPrLys-Ala-Phe-Leu-PyrS2-Phe-BztA-His-NH2] |
| 592 | CC(C)C[C@H](NC(=O)[C@]12CCN(C1)C(=O)OCCCCCCCCC1(CCCCCCCC(=O)N3CCC[C@@]3(C)C(=O)N[C@@H](CC(=O)O)C(=O)N1)C(=O)N[C@@H](C)C(=O)N[C@@H](CC(=O)O)C(=O)N[C@@H](CC(=O)O)C(=O)N[C@@H](C)C(=O)N[C@@H](C)C(=O)N[C@@H](Cc1ccccc1)C(=O)N2)C(=O)N[C@@H](Cc1ccsc1)C(=O)N[C@@H](Cc1csc2ccccc12)C(=O)N[C@@H](CCC(N)=O)C(N)=O (stereo partly drawn) [I-2601, 4pentenyl-MePro-Asp-B5-Ala-Asp-Asp-Ala-Ala-Phe-PyrS2-Leu-3Thi-BztA-Gln-NH2] |
| 90 | CC(=O)N1CCC[C@]12CC=CCCCC1(CCCC=CCCCOC(=O)N3CC[C@@](C(=O)N[C@@H](Cc4ccsc4)C(=O)N[C@@H](Cc4c[nH]c5cc(Cl)ccc45)C(=O)N[C@@H](CCC(N)=O)C(N)=O)(C3)NC(=O)[C@H](CC(C)C)NC(=O)[C@H](Cc3ccccc3)NC(=O)[C@H](C)NC(=O)[C@H](C)NC(=O)[C@H](CC(=O)O)NC(=O)[C@H](CC(=O)O)NC1=O)NC(=O)[C@H](CC(C)(C)C)NC(=O)[C@H](CC(=O)O)NC2=O (stereo partly drawn) [I-1435, Ac-PL3-Asp-Npg-B5-Asp-Asp-Ala-Ala-Phe-Leu-PyrS2-3Thi-6C1W-Gln-NH2] |
| 217 | CC(=O)N1CCC[C@]12CC=CCCCC1(CCCC=CCCCOC(=O)N3CC[C@@](C(=O)N[C@@H](Cc4ccsc4)C(=O)N[C@@H](Cc4csc5ccccc45)C(=O)N[C@@H](C)C(N)=O)(C3)NC(=O)[C@H](CC(N)=O)NC(=O)[C@H](Cc3ccccc3)NC(=O)[C@H](C)NC(=O)[C@H](C)NC(=O)[C@H]([C@@H](C)O)NC(=O)[C@H](CC(N)=O)NC1=O)NC(=O)[C@H](CC(C)(C)C)NC(=O)[C@H](CC(=O)O)NC2=O (stereo partly drawn) [I-2143, Ac-PL3-Asp-Npg-B5-Asn-Thr-Ala-Ala-Phe-Asn-PyrS2-3Thi-BztA-Ala-NH2] |
